Source: patent publication US20250345392A1, “ANNEXIN A1 LIQUID PHARMACEUTICAL COMPOSITION” (ResoTher Pharma A/S, priority 2022, published 2025)
Read-outs that look alike come from different tables or passages of the source. Ends that are not written are not given here.

Test: Clinical test in humans, three 30-min i.v. infusions 8 hours apart, plasma PK
Assay type: in vivo
Conditions: human, three 30-min i.v. infusions 8 h apart; for AUC / Cmax / Tmax / AUC(0-t) / half-life: iv; for AUC(0-t): read-out: AUC0-24; for half-life: after the last infusion
Method: A total of 8 subjects were included in each group. In each group, 6 subjects received the active treatment and 2 received the placebo. The active treatment was as follows in each group: • Group 9 received three 8 hours apart 30-min Peptide 1 intravenous (i.v.) infusions, wherein each i.v. infusion corresponded to a dose of 50 μg/kg. • Group 10 received three 8 hours apart 30-min Peptide 1 intravenous (i.v.) infusions, wherein each i.v. infusion corresponded to a dose of 100 μg/kg. • Group 11 received three 8 hours apart 30-min Peptide 1 intravenous (i.v.) infusions, wherein each i.v. infusion corresponded to a dose of 140 μg/kg. • Group 12 received three 8 hours apart 30-min Peptide 1 intravenous (i.v.) infusions, wherein each i.v. infusion corresponded to a dose of 200 μg/kg. • Group 13 received three 8 hours apart 30-min Peptide 1 intravenous (i.v.) infusions, wherein each i.v. infusion corresponded to a dose of 250 μg/kg.
The tested liquid pharmaceutical composition has a pH of 8.2-8.4, and comprises the following: • i) 5 mg/ml of Peptide 1, • ii) 4% (w/w) mannitol, • iii) 1% (w/w) sucrose, • iv) 0.01% (w/w) Polysorbate-80, • v) 10 mM glycyl-glycine, and • vi) sterile water for injection.
Venous whole blood samples were collected from all subjects.
Plasma samples were analyzed for Peptide 1 using validated Liquid chromatography—Tandem Mass spectrometry (LC-MS/MS) methods by Charles River Laboratories (CRL).
Derivation of PK parameters were carried out by PhinC Development using Phoenix WinNonlin® (Version Phoenix 8.1—Certara—Princeton—USA). A non-compartmental analysis (NCA) approach was chosen.
For the calculation of the PK parameters and characteristics the following rules were applied: • All the plasma concentrations validated by the bioanalytical laboratory and provided to the pharmacokinetics were used for the PK analysis. • The theoretical PK blood sampling time points were used. • At time points in the lag-time between time zero and the first concentration equal or above limit of quantification (LOQ), concentrations below the LOQ (BLQ) were set to zero (0). • Concentrations BLQ between 2 concentrations equal or above LOQ were considered as missing. • Trailing concentrations (at time point between time of last measurable concentrations and time of last blood sample) BLQ were not used in calculations. • For 3 infusions regimen, each infusion was considered separately and BLQ rules were applied for each infusion. […] If the pre-dose value was greater than 5% of Cmax, the subject was dropped from all statistical evaluations.
AUC0-tau was only calculated if there were at least 3 concentrations above LOQ. • AUC0-24: The area under the plasma concentration-time curve from time zero (pre-dose) to 24 h was calculated as the sum of the 3 AUC0-tau: AUC0-24=AUC0-tau1+AUC0-tau2+AUC0-tau3. • AUC0-t: The area under the concentration-time curve from time zero (pre-dose) to the time of last quantifiable concentration was calculated using a linear trapezoidal method after each administration (AUC0-t1, AUC0-t2 and AUC0-t3, where AUC0-t1 was AUC0-t corresponded to the AUC from pre-dose to the last measurable quantifiable concentration following the first infusion). AUC0-t was only calculated if there were at least 3 concentrations above LOQ. • ke: The terminal plasma elimination rate-constant was estimated from log-linear regression analysis of the terminal phase of the plasma concentration-time profile. The number of points included in the terminal phase was determined by visual inspection of the semi-log plots of the plasma concentration-time profiles. A minimum of 3 data points, including the last measured data point and excluding Cmax, had to be available for the regression. The correlation coefficient for the goodness of the fit of the regression line through the data points (r^2) had to be 0.8000 or higher, for the value to be considered reliable. […]

For “AMVSEFLKQAWFIENEEQEYVQTLKSSKGGPGSAVSPYPTFNPSSDV-NH2 [Peptide 1]”, the AUC (in vivo, 250 ug/kg, 250 μg/kg each, mean, read-out: AUC0-t3) was 2430 ng·h/mL, the AUC (in vivo, 250 ug/kg, 250 μg/kg each, mean, read-out: AUC0-tau1) was 2630 ng·h/mL and the AUC (in vivo, 250 ug/kg, 250 μg/kg each, mean, read-out: AUC0-tau2) was 2440 ng·h/mL. It also gave an AUC (in vivo, 250 ug/kg, 250 μg/kg each, mean, read-out: AUC0-tau3) of 2480 ng·h/mL, a Cmax (in vivo, 250 ug/kg, 250 μg/kg each, mean, read-out: Global Cmax) of 2330 ng/mL and a Tmax (in vivo, 250 ug/kg, 250 μg/kg each, median, read-out: Global tmax) of 8.5 h. It also gave a Tmax (in vivo, 250 ug/kg, 250 μg/kg each, median, read-out: tmax3) of 16.5 h, an AUC (in vivo, 50 μg/kg each, GM, read-out: AUC0-t1) of 417 ng·h/mL and an AUC (in vivo, 50 μg/kg each, GM, read-out: AUC0-tau1) of 509 ng·h/mL. The AUC (in vivo, 50 μg/kg each, mean, read-out: AUC0-tau2) was 517 ng·h/mL, the AUC (in vivo, 50 μg/kg each, mean, read-out: AUC0-tau3) was 541 ng·h/mL and the AUC(0-t) (in vivo, 100 μg/kg each, GM) was 3600 ng·h/mL. It also gave an AUC (in vivo, 100 μg/kg each, GM, read-out: AUC0-t1) of 982 ng·h/mL, an AUC (in vivo, 100 μg/kg each, GM, read-out: AUC0-t2) of 1120 ng·h/mL and an AUC (in vivo, 100 μg/kg each, GM, read-out: AUC0-t3) of 1090 ng·h/mL. For the same substance, the AUC (in vivo, 100 μg/kg each, mean, read-out: AUC0-t1) was 993 ng·h/mL, the AUC (in vivo, 100 μg/kg each, mean, read-out: AUC0-tau1) was 1120 ng·h/mL and the AUC (in vivo, 100 μg/kg each, mean, read-out: AUC0-tau2) was 1240 ng·h/mL. It also gave an AUC (in vivo, 100 μg/kg each, mean, read-out: AUC0-tau3) of 1260 ng·h/mL, a Cmax (in vivo, 100 μg/kg each, mean, read-out: Global Cmax) of 1020 ng/mL and a half-life (in vivo, 140 μg/kg each, GM) of 116 min. It also gave an AUC(0-t) (in vivo, 140 μg/kg each, GM) of 5310 ng·h/mL, an AUC (in vivo, 140 μg/kg each, GM, read-out: AUC0-t3) of 1570 ng·h/mL and an AUC (in vivo, 140 μg/kg each, mean, read-out: AUC0-tau3) of 1710 ng·h/mL. For the same substance, the half-life (in vivo, 200 μg/kg each, GM) was about 120 min, the AUC (in vivo, 200 μg/kg each, GM, read-out: AUC0-t1) was 2490 ng·h/mL and the AUC (in vivo, 200 μg/kg each, GM, read-out: AUC0-tau1) was 2590 ng·h/mL. For the same substance, the AUC (in vivo, 200 μg/kg each, GM, read-out: AUC0-tau2) was 2750 ng·h/mL, the AUC (in vivo, 200 μg/kg each, GM, read-out: AUC0-tau3) was 2710 ng·h/mL and the Cmax (in vivo, 200 μg/kg each, mean, read-out: Global Cmax) was 2370 ng/mL. It also gave a half-life (in vivo, 250 μg/kg each, GM) of about 120 min, an AUC (in vivo, 250 μg/kg each, GM, read-out: AUC0-t1) of 2500 ng·h/mL and an AUC (in vivo, 250 μg/kg each, GM, read-out: AUC0-t2) of 2300 ng·h/mL. It also gave an AUC (in vivo, 250 μg/kg each, GM, read-out: AUC0-tau3) of 2460 ng·h/mL, a Tmax (in vivo, all subjects except one (time of the end of infusion), read-out: tmax after each administration) of 0.5 h and a Cmax (plasma, 50 μg/kg, 50 μg/kg each, GM, read-out: Cmax1) of 403 ng/mL. The Cmax (plasma, 50 μg/kg, 50 μg/kg each, mean, read-out: Cmax2) was 395 ng/mL, the Cmax (plasma, 100 μg/kg, 100 μg/kg each, GM, read-out: Cmax1) was 877 ng/mL and the Cmax (plasma, 100 μg/kg, 100 μg/kg each, GM, read-out: Cmax3) was 958 ng/mL. For the same substance, the Cmax (plasma, 100 μg/kg, 100 μg/kg each, mean, read-out: Cmax1) was 883 ng/mL, the Cmax (plasma, 100 ug/kg, 100 μg/kg each, mean, read-out: Cmax2) was 977 ng/mL and the Cmax (plasma, 140 μg/kg, 140 μg/kg each, GM, read-out: Cmax1) was 1310 ng/mL. For the same substance, the Cmax (plasma, 140 μg/kg, 140 μg/kg each, GM, read-out: Cmax3) was 1220 ng/mL, the Cmax (plasma, 140 μg/kg, 140 μg/kg each, mean, read-out: Cmax1) was 1340 ng/mL and the Cmax (plasma, 200 μg/kg, 200 μg/kg each, GM, read-out: Cmax3) was 2130 ng/mL. For the same substance, the Cmax (plasma, 200 μg/kg, 200 μg/kg each, mean, read-out: Cmax1) was 2190 ng/mL, the Cmax (plasma, 200 μg/kg, 200 μg/kg each, mean, read-out: Cmax2) was 2050 ng/mL and the Cmax (plasma, 250 μg/kg, 250 μg/kg each, GM, read-out: Cmax1) was 1890 ng/mL. It also gave a Cmax (plasma, 250 μg/kg, 250 μg/kg each, GM, read-out: Cmax2) of 1800 ng/mL, a Cmax (plasma, 250 μg/kg, 250 μg/kg each, GM, read-out: Cmax3) of 1780 ng/mL and a Cmax (plasma, 250 μg/kg, 250 μg/kg each, mean, read-out: Cmax1) of 1960 ng/mL. For the same substance, the Cmax2 (50 μg/kg each, GM) was 391 ng/mL, the Cmax3 (50 μg/kg each, GM) was 396 ng/mL and the tmax1 (50 μg/kg each, GM) was 30 min. For the same substance, the tmax2 (50 μg/kg each, GM) was 8.50 h, the Cmax1 (50 μg/kg each, mean) was 406 ng/mL and the tmax1 (50 μg/kg each, median) was 30 min. It also gave a tmax2 (50 μg/kg each, median) of 8.50 h, a tmax3 (50 μg/kg each, median) of 16.50 h and a Cmax2 (100 μg/kg each, GM) of 971 ng/mL. It also gave a tmax1 (100 μg/kg each, GM) of 30 min, a tmax2 (100 μg/kg each, GM) of 8.50 h and a tmax3 (100 μg/kg each, GM) of 16.50 h. For the same substance, the Cmax3 (100 μg/kg each, mean) was 970 ng/mL, the tmax1 (100 μg/kg each, median) was 30 min and the tmax2 (100 μg/kg each, median) was 8.50 h. It also gave a Cmax2 (140 μg/kg each, GM) of 1360 ng/mL, a tmax1 (140 μg/kg each, GM) of 30 min and a tmax2 (140 μg/kg each, GM) of 8.47 h. The tmax3 (140 μg/kg each, GM) was 16.50 h, the Cmax2 (140 μg/kg each, mean) was 1390 ng/mL and the Cmax3 (140 μg/kg each, mean) was 1240 ng/mL. The tmax1 (140 μg/kg each, median) was 30 min, the tmax2 (140 μg/kg each, median) was 8.50 h and the AUC0-tau3 (200 μg/kg each, GM) was 2774.47 ng·h/mL. It also gave a Cmax1 (200 μg/kg each, GM) of 2170 ng/mL, a Cmax2 (200 μg/kg each, GM) of 2020 ng/mL and a tmax1 (200 μg/kg each, GM) of 30 min. For the same substance, the tmax2 (200 μg/kg each, GM) was 8.50 h, the tmax3 (200 μg/kg each, GM) was 16.47 h and the Cmax3 (200 μg/kg each, mean) was 2170 ng/mL. The tmax1 (200 μg/kg each, median) was 30 min, the tmax2 (200 μg/kg each, median) was 8.50 h and the tmax2 (250 μg/kg each, GM) was 8.54 h. For the same substance, the tmax3 (250 μg/kg each, GM) was 16.44 h, the Cmax2 (250 μg/kg each, mean) was 1930 ng/mL and the Cmax3 (250 μg/kg each, mean) was 1800 ng/mL. It also gave a tmax1 (250 μg/kg each, median) of 30 min and a tmax2 (250 μg/kg each, median) of 8.50 h.
